Results as given in ChEMBL document CHEMBL1133905, “Novel lipase-catalysed enantioselective deacetylation of (+/-)-5-acetoxy-3-(4-fluorophenyl)-2-phenylisoxazolidine” (2001).
Values after ≈ are worked out from the molar mass of the structure shown.

Legend:
[1] = system: Mycobacterium tuberculosis; assay: Inhibition against Mycobacterium tuberculosis; format: functional
[2] = system: Mycobacterium tuberculosis; assay: Inhibition against Mycobacterium tuberculosis at 6.25 ug/mL; format: functional

CC(=O)OC1CC(c2ccc(F)cc2)N(c2ccccc2)O1 (racemic)
MIC [1]: 6.25 µg/mL (≈ 20.7 µM) | inhibition at 6.25 µg/mL [2]: 78%
